Laboratory results as given in ChEMBL document CHEMBL4138213, “Synthesis and biological characterization of ubenimex-fluorouracil conjugates for anti-cancer therapy” (Eur J Med Chem, 2018).
Activity calls are given as the source filed them. The rule behind the calls is not given here.

Tests used:
Aminopeptidase N = target: T1, Aminopeptidase N (Sus scrofa, UniProt P15145); assay: Inhibition of porcine kidney CD13 using L-leucine-p-nitroanilide as substrate preincubated for 5 mins followed by substrate addition measured after 30 mins
T1 sequence (P15145 whole entry): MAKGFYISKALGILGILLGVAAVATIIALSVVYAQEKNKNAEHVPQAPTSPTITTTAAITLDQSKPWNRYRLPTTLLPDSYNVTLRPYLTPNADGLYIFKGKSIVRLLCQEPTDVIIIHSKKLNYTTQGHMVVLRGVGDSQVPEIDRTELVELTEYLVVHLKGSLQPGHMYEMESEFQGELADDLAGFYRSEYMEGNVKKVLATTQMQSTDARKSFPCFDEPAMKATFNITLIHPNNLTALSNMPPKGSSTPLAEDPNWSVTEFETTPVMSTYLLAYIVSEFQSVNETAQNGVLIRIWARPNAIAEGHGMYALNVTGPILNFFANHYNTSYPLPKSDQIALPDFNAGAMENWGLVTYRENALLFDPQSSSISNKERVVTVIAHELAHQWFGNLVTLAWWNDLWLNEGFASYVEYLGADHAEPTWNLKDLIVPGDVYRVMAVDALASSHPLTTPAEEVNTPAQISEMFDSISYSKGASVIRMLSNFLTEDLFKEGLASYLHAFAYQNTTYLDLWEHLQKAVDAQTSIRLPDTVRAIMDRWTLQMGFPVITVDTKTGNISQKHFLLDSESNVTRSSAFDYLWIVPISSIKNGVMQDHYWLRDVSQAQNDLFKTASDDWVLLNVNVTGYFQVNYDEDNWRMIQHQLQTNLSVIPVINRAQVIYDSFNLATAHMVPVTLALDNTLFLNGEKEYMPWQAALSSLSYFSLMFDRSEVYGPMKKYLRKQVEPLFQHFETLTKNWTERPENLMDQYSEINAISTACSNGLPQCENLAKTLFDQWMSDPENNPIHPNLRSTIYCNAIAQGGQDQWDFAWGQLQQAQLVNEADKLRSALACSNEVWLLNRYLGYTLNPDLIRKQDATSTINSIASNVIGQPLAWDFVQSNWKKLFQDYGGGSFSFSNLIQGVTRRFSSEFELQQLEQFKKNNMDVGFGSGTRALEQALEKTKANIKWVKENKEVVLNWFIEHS

PLC-PRF-5 [1] = assay: Antiproliferative activity against human PLC/PRF/5 cells after 48 hrs by MTT assay; conditions: PLC-PRF-5, 48 h
cells [2] = conditions: Homo sapiens, ES-2, 48 h
Description: Antiproliferative activity against human ES2 cells after 48 hrs by MTT assay

PLC-PRF-5 [3] = assay: Antiproliferative activity against human PLC/PRF/5 cells in presence of ubenimex after 48 hrs by MTT assay; assay type: functional, cell-based; conditions: PLC-PRF-5, 48 h
U-266 [4] = assay: Antiproliferative activity against human U266 cells after 48 hrs by MTT assay; conditions: U-266, 48 h
A549 = assay: Antiproliferative activity against human A549 cells after 48 hrs by MTT assay; conditions: A549, 48 h
[5] = Antiproliferative activity against human H7402 cells after 48 hrs by MTT assay; conditions: H7402, 48 h
U-937 [6] = assay: Antiproliferative activity against human U937 cells in presence of ubenimex after 48 hrs by MTT assay; assay type: functional, cell-based; conditions: U-937, 48 h
U-266 [7] = assay: Antiproliferative activity against human U266 cells in presence of ubenimex after 48 hrs by MTT assay; assay type: functional, cell-based; conditions: U-266, 48 h
PLC-PRF-5 [8] = assay: Induction of apoptosis in human PLC/PRF/5 cells assessed as early apoptotic cells at 20 uM after 48 hrs by annexin-V-FITC/propidium iodide staining-based flow cytometric method (reference value: 5.82%); assay type: functional
PLC-PRF-5 [9] = assay: Induction of apoptosis in human PLC/PRF/5 cells assessed as late apoptotic cells at 20 uM after 48 hrs by annexin-V-FITC/propidium iodide staining-based flow cytometric method (reference value: 0.341%); assay type: functional
PLC-PRF-5 [10] = assay: Induction of apoptosis in human PLC/PRF/5 cells assessed as necrotic cells at 20 uM after 48 hrs by annexin-V-FITC/propidium iodide staining-based flow cytometric method (reference value: 0.106%); assay type: functional
PLC-PRF-5 [11] = assay: Induction of apoptosis in human PLC/PRF/5 cells assessed as viable cells at 20 uM after 48 hrs by annexin-V-FITC/propidium iodide staining-based flow cytometric method (reference value: 93.7%); assay type: functional; conditions: PLC-PRF-5, 48 h, read-out: Activity
PLC-PRF-5 [12] = assay: Induction of apoptosis in human PLC/PRF/5 cells assessed as early apoptotic cells at 20 uM in presence of ubenimex after 48 hrs by annexin-V-FITC/propidium iodide staining-based flow cytometric method (reference value: 5.82%); assay type: functional
PLC-PRF-5 [13] = assay: Induction of apoptosis in human PLC/PRF/5 cells assessed as late apoptotic cells at 20 uM in presence of ubenimex after 48 hrs by annexin-V-FITC/propidium iodide staining-based flow cytometric method (reference value: 0.341%); assay type: functional
PLC-PRF-5 [14] = assay: Induction of apoptosis in human PLC/PRF/5 cells assessed as necrotic cells at 20 uM in presence of ubenimex after 48 hrs by annexin-V-FITC/propidium iodide staining-based flow cytometric method (reference value: 0.106%); assay type: functional
PLC-PRF-5 [15] = assay: Induction of apoptosis in human PLC/PRF/5 cells assessed as viable cells at 20 uM in presence of ubenimex after 48 hrs by annexin-V-FITC/propidium iodide staining-based flow cytometric method (reference value: 93.7%); assay type: functional; conditions: PLC-PRF-5, 48 h, read-out: Activity
PLC-PRF-5 [16] = assay: Downregulation of CD13 expression in human PLC/PRF/5 cells at 10 uM after 48 hrs by flow cytometric method; assay type: functional, cell-based
PLC-PRF-5 [17] = assay: Downregulation of CD13 expression in human PLC/PRF/5 cells at 10 uM in presence of ubenimex after 48 hrs by flow cytometric method; assay type: functional, cell-based
[18] = Drug level in human plasma treated with (5-fluoro-2,4-dioxo-3,4-dihydropyrimidin1(2H)-yl)methyl-2-((S)-2-((2S,3R)-3-amino-2-hydroxy-4-phenylbut-anamido)-4-methylpentanamido)acetate hydrochloride at 4 mg/ml after 8 hrs by HPLC method; assay type: ADME, cell-free
[19] = Drug level in Wistar rat plasma treated with (5-fluoro-2,4-dioxo-3,4-dihydropyrimidin1(2H)-yl)methyl-2-((S)-2-((2S,3R)-3-amino-2-hydroxy-4-phenylbut-anamido)-4-methylpentanamido)acetate hydrochloride assessed as carboxylesterase-mediated compound formation at 80 mg/kg, iv by HPLC-MS/MS analysis; assay type: ADME, organism-based; conditions: in vivo
H22 = assay: Antitumor activity against 5-FU-resistant […] cells xenografted in Kunming mouse at 20 mg/kg, ip after 14 days; assay type: functional, organism-based
[20] = AUC (0 to infinity) in Wistar rat at 80 mg/kg, iv after 0.05 to 24 hrs by HPLC-MS/MS analysis; assay type: ADME, organism-based; parameters: dose 80 mg/kg, time infinity, route intravenous; conditions: in vivo
[21] = MRT (0 to infinity) in Wistar rat at 80 mg/kg, iv after 0.05 to 24 hrs by HPLC-MS/MS analysis; assay type: ADME, organism-based; conditions: Wistar, in vivo
Rattus norvegicus = assay: VRT (0 to infinity) in Wistar rat at 80 mg/kg, iv after 0.05 to 24 hrs by HPLC-MS/MS analysis; assay type: ADME, organism-based; conditions: in vivo
[22] = Apparent clearance in Wistar rat at 80 mg/kg, iv after 0.05 to 24 hrs by HPLC-MS/MS analysis; assay type: ADME, organism-based; conditions: in vivo, read-out: CL(app) (converted)
[23] = Volume of distribution during elimination phase in Wistar rat at 80 mg/kg, iv after 0.05 to 24 hrs by HPLC-MS/MS analysis; assay type: ADME, organism-based; conditions: in vivo, read-out: Vz
[24] = Terminal Half life in Wistar rat at 80 mg/kg, iv after 0.05 to 24 hrs by HPLC-MS/MS analysis; assay type: ADME, organism-based; conditions: Wistar, in vivo, read-out: beta t1/2 (converted)
[25] = Cmax in Wistar rat at 80 mg/kg, iv after 0.05 to 24 hrs by HPLC-MS/MS analysis; assay type: ADME, organism-based; parameters: dose 80 mg/kg, route intravenous; conditions: in vivo
cells [26] = conditions: Homo sapiens, ES-2, 48 h; remark: listed apart in the source
U-937 [27] = assay: cells; conditions: Homo sapiens, U-937, 48 h
Description: Antiproliferative activity against human U937 cells after 48 hrs by MTT assay

HCT-116 [28] = assay: cells; conditions: Homo sapiens, HCT-116, 48 h
HepG2 [29] = assay: cells; conditions: Homo sapiens, HepG2, 48 h
HCT-116 [30] = assay: cells; conditions: Homo sapiens, HCT-116, 48 h; remark: listed apart in the source
cells [31] = conditions: Homo sapiens, H7402, 48 h
HepG2 [32] = assay: cells; conditions: Homo sapiens, HepG2, 48 h; remark: listed apart in the source

CC(C)C[C@H](NC(=O)[C@@H](O)[C@H](N)Cc1ccccc1)C(=O)N[C@@H](C)C(=O)OCn1cc(F)c(=O)[nH]c1=O
IC50 (Aminopeptidase N): 170 nM | IC50 (PLC-PRF-5 [1]): 24.2 µM | IC50 (cells [2]): 25.3 µM

CC(C)C[C@H](NC(=O)[C@@H](O)[C@H](N)Cc1ccccc1)C(=O)OCn1cc(F)c(=O)[nH]c1=O
IC50 (Aminopeptidase N): 3180 nM | IC50 (PLC-PRF-5 [1]): 18.4 µM | IC50 (cells [2]): 26.1 µM

CC(C)C[C@H](NC(=O)[C@@H](O)[C@H](N)Cc1ccccc1)C(=O)NCCCCCC(=O)OCn1cc(F)c(=O)[nH]c1=O
IC50 (Aminopeptidase N): 1830 nM | IC50 (PLC-PRF-5 [1]): 60.1 µM | IC50 (cells [2]): 104 µM

O=c1[nH]cc(F)c(=O)[nH]1 [FLUOROURACIL]
IC50 (PLC-PRF-5 [1]): 35.7 µM | IC50 (PLC-PRF-5 [3]): 22.8 µM | IC50 (U-266 [4]): 66.2 µM | IC50 (A549): 17 µM | IC50 [5]: 21.9 µM | IC50 (U-937 [6]): 9.56 µM | IC50 (U-266 [7]): 43.5 µM | Activity (PLC-PRF-5 [8]): 20.1% | Activity (PLC-PRF-5 [9]): 6.8% | Activity (PLC-PRF-5 [10]): 0% | viability at 20 µM (PLC-PRF-5 [11]): 73.1% | Activity (PLC-PRF-5 [12]): 33.3% | Activity (PLC-PRF-5 [13]): 2.38% | Activity (PLC-PRF-5 [14]): 0% | viability at 20 µM (PLC-PRF-5 [15]): 64.3% | Activity (PLC-PRF-5 [16]): inactive | Activity (PLC-PRF-5 [17]): Active | Drug metabolism [18]: Metabolite_Detected | Drug metabolism [19]: Metabolite_Detected | Activity (H22): inactive | AUC(0-inf) [20]: 13600 ng·h/mL | MRT inf [21]: 2.48 h | VRT (Rattus norvegicus): 4.205 hr2 | clearance [22]: 98.4 mL/min/kg | Vd [23]: 20.1 L/kg | half-life [24]: 141 min | Cmax [25]: 3810 ng/mL | IC50 (cells [2]): 71.5 µM | IC50 (cells [26]): 37.1 µM | IC50 (U-937 [27]): 28.8 µM | IC50 (HCT-116 [28]): 53.8 µM | IC50 (HepG2 [29]): 18.4 µM | IC50 (HCT-116 [30]): 44.1 µM | IC50 (cells [31]): 17.6 µM | IC50 (HepG2 [32]): 14.5 µM
